Experimental findings from patent publication US11072634B2, “Inhibitors of transglutaminases” (Zedira GmbH, priority 2016, dated 2021) are described below.

This assay has as its target T1, recombinant human tissue transglutaminase (rhTG2) (Homo sapiens, UniProt P21980).
T1 construct: purchased Zedira 1022 (so in the source); T022)
T1 sequence (P21980 1-687): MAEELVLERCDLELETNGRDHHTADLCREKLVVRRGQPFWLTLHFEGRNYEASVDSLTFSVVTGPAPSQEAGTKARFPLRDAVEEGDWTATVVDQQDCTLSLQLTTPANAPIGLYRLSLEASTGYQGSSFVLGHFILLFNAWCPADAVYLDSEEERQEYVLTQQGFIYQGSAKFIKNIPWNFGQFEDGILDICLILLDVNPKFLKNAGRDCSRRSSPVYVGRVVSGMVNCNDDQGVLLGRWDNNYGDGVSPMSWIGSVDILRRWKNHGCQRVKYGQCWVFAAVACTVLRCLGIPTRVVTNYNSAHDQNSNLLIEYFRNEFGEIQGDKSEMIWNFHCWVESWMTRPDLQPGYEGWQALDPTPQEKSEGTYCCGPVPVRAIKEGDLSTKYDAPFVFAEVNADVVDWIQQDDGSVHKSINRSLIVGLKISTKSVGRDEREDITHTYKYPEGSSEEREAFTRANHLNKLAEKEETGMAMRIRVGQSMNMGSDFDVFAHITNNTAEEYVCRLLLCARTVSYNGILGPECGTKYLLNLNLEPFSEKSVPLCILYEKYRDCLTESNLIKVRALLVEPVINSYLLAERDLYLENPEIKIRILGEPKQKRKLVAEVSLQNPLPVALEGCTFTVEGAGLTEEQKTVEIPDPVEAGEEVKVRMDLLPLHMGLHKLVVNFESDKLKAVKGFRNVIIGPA
Put plainly: Inhibition of rec. human tissue transglutaminase (fluorescence, Abz-APE(CAD-DNP)QEA-OH). In kind it is biochemical. The following applies: Table 2, TG2 inhibitors. Here is the method: Method for Inhibition Studies of Rec. Human Tissue Transglutaminase (rhTG2)
250 μg lyophilized His-tagged recombinant human tissue transglutaminase (His6-rhTG2, Zedira product 1022) is reconstituted in H2O (volume depends on original volume before lyophilization) resulting in a buffer containing 10 mM Tris-HCl, 150 mM NaCl, 1 mM EDTA, 5 mM DTT, 189 mg/ml maltodextrin, pH=8.1. The rhTG2 stock solution is diluted in buffer (50 mM Tris-HCl, 7.5 mM CaCl2, 150 mM NaCl, pH=7.4) to give a working solution of 100 U/ml (based on the amine-incorporation activity measured using T036, described below).
A 10 mM inhibitor stock solution is prepared in DMSO, and from this stock solution a serial 1:2-fold dilution series is prepared, also in DMSO. Each of these initial dilutions is subsequently diluted 1:50-fold with buffer (50 mM Tris-HCl, 7.5 mM CaCl2, 150 mM NaCl, pH=7.4) to yield the final working dilutions containing 2% (v/v) DMSO. 15 μl of inhibitor working dilution are added per well of a 96 well microtiter plate. As control, 15 μl of a 2% (v/v) DMSO solution prepared using the buffer mentioned above are added per well.
600 μl of His6-rhTG2 working solution are added to 11.4 ml assay buffer (50 mM Iris-HCl, 7.5 mM CaCl2, 150 mM NaCl, 5 mM DTI, 13.4 mM glycine methylester, 50 μM Abz-APE(CAD-DNP)QEA-OH, (Zedira product A102; patent No.: EP 1781807B1), pH=7.4). From this master-mix solution, 285 μl are added per well containing the inhibitor. Increase in fluorescence is measured using λex=313 nm and λem=418 nm at 37° C. for 20 min. A slope of the increase in fluorescence between 10 and 20 min is calculated for determination of the IC50 value (inhibitor concentration at which 50% of the initial TG2 activity is blocked).
Analysis of enzymatic activity is performed by calculation of the slope of an increase in fluorescence intensity. IC50 values are calculated by plotting the enzymatic activity (as percentage from control containing 2% DMSO instead of inhibitor) against the inhibitor concentration. IC50 is defined as the inhibitor concentration blocking 50%) of initial enzyme activity.
As to `CCC(CC)CNC(=O)Cn1cccc(NC(=O)[C@H](CCC(=O)C(=O)NC)NC(=O)c2ccoc2)c1=O` [Compound E61, (S)—N1-(1-(2-(2-ethylbutylamino)-2-oxoethyl)-2-oxo-1,2-dihydropyridin-3-yl)-2-(furan-3-carboxamido)-N6-methyl-5-oxohexanediamide], the IC50 was 80 nM.
Under `CNC(=O)C(=O)CC[C@H](NC(=O)c1cncn1C)C(=O)Nc1cccn(CC(=O)NS(C)(=O)=O)c1=O` [Compound E51, (S)—N1-methyl-5-(1-methyl-1H-imidazole-5-carboxamido)-N6-(1-(2-(methylsulfonamido)-2-oxoethyl)-2-oxo-1,2-dihydropyridin-3-yl)-2-oxohexanediamide] stands 760 nM.
`CCC(CC)CNC(=O)Cn1cccc(NC(=O)[C@H](CCC(=O)C(=O)NC)NC(=O)OC(C)(C)C)c1=O` [Compound E58, (S)-tert-butyl 1-(1-(2-(2-ethylbutylamino)-2-oxoethyl)-2-oxo-1,2-dihydropyridin-3-ylamino)-6-(methylamino)-1,5,6-trioxohexan-2-ylcarbamate]: the IC50 was 280 nM.
Consider `COC(=O)[C@H](CC(C)C)NC(=O)[C@@H]1CCCN1C(=O)[C@@H](NC(=O)[C@H](CCC(=O)C(=O)NC1CC1)NC(=O)c1ccccc1)C(C)C` [Compound E24, (S)-methyl 2-((S)-1-((S)-2-((S)-2-benzamido-6-(cyclopropylamino)-5,6-dioxonexan-amido)-3-methylbutanoyl)pyrrolidine-2-carboxamido)-4-methylpentanoate], for which the 50% inhibitory concentration (IC50) stood at 550 nM.
Under `CCC(CC)CNC(=O)Cn1cccc(NC(=O)[C@H](CCC(=O)C(=O)NCOC)NC(=O)c2cncn2C)c1=O` [Compound E39, (S)—N1-(1-(2-(2-ethylbutylamino)-2-oxoethyl)-2-oxo-1,2-dihydropyridin-3-yl)-N6-(methoxymethyl)-2-(1-methyl-1H-imidazole-5-carboxamido)-5-oxohexanediamide] stands 135 nM.
With `CCC(CC)CNC(=O)Cn1cccc(NC(=O)[C@H](CCC(=O)C(=O)NC)NC(=O)CCC(=O)O)c1=O` [Compound E59, (S)-4-(1-(1-(2-(2-ethylbutylamino)-2-oxoethyl)-2-oxo-1,2-dihydropyridin-3-ylamino)-6-(methylamino)-1,5,6-trioxohexan-2-ylamino)-4-oxobutanoic acid], the IC50 was 625 nM.
As for `CCC(CC)CNC(=O)Cn1cccc(NC(=O)[C@H](CCC(=O)C(=O)NC)NC(=O)c2cncnc2)c1=O` [Compound E64, (S)—N1-(1-(2-(2-ethylbutylamino)-2-oxoethyl)-2-oxo-1,2-dihydropyridin-3-yl)-N6-methyl-5-oxo-2-(pyrimidine-5-carboxamido)hexanediamide], the figure is 95 nM.
In the case of `CCC(CC)CNC(=O)Cn1cccc(NC(=O)[C@H](CCC(=O)C(=O)c2ccccc2)NC(=O)c2cncn2C)c1=O` [Compound E76, (S)—N-(1-(1-(2-(2-ethylbutylamino)-2-oxoethyl)-2-oxo-1,2-dihydropyridin-3-ylamino)-1,5,6-trioxo-6-phenylhexan-2-yl)-1-methyl-1H-imidazole-5-carboxamide], the IC50 worked out at 550 nM.
As for `CCC(CC)CNC(=O)Cn1cccc(NC(=O)[C@H](CCC(=O)C(N)=O)NC(=O)c2ccccc2)c1=O` [Compound E12, (S)-2-benzamido-N1-(1-(2-(2-ethylbutylamino)-2-oxoethyl)-2-oxo-1,2-dihydropyridin-3-yl)-5-oxonexanediamide], the figure is 950 nM; as for `CCC(CC)CNC(=O)Cn1cccc(NC(=O)[C@H](CCC(=O)C(=O)NC)NS(=O)(=O)c2nccn2C)c1=O` [Compound E68, (S)—N1-(1-(2-(2-ethylbutylamino)-2-oxoethyl)-2-oxo-1,2-dihydropyridin-3-yl)-N6-methyl-2-(1-methyl-1H-imidazole-2-sulfonamido)-5-oxohexanediamide], 150 nM.
As for `CCS(=O)(=O)NC(=O)Cn1cccc(NC(=O)[C@H](CCC(=O)C(=O)NC)NC(=O)c2cncn2C)c1=O` [Compound E56, (S)—N1-(1-(2-(ethylsulfonamido)-2-oxoethyl)-2-oxo-1,2-dihydropyridin-3-yl)-N6-methyl-2-(1-methyl-1H-imidazole-5-carboxamido)-5-oxohexanediamide], the figure is 850 nM; as for `CCC(CC)CNC(=O)Cn1cccc(NC(=O)[C@H](CCC(=O)C(=O)OC)NC(=O)c2cncn2C)c1=O` [Compound E77, (S)-methyl 6-(1-(2-(2-ethylbutylamino)-2-oxoethyl)-2-oxo-1,2-dihydropyridin-3-ylamino)-5-(1-methyl-1H-imidazole-5-carboxamido)-2,6-dioxohexanoate], 200 nM.
Under `CCC(CC)CNC(=O)Cn1cccc(NC(=O)[C@H](CCC(=O)C(=O)NC)NC(=O)C2CCN(C)CC2)c1=O` [Compound E63, (S)—N1-(1-(2-(2-ethylbutylamino)-2-oxoethyl)-2-oxo-1,2-dihydropyridin-3-yl)-N6-methyl-2-(1-methylpiperidine-4-carboxamido)-5-oxohexanediamide] stands 80 nM.
As for `CCC(CC)CNC(=O)Cn1cccc(NC(=O)[C@H](CCC(=O)C(N)=O)NC(=O)c2cc([N+](=O)[O-])ccc2C)c1=O` [Compound E13], the 50% inhibitory concentration (IC50) stood at 700 nM.
In the case of `CCC(CC)CNC(=O)Cn1cccc(NC(=O)[C@H](CCC(=O)C(=O)NC2CC2)NC(=O)c2ccccc2)c1=O` [Compound E23, (S)-2-benzamido-N6-cyclopropyl-N1-(1-(2-(2-ethylbutylamino)-2-oxoethyl)-2-oxo-1,2-dihydropyridin-3-yl)-5-oxonexanediamide], the IC50 was 1100 nM.
Under `CCC(CC)CNC(=O)Cn1cccc(NC(=O)[C@H](CCC(=O)C(=O)NCC(=O)OC)NC(=O)c2cncn2C)c1=O` [Compound E38, (S)-methyl 2-(6-(1-(2-(2-ethylbutylamino)-2-oxoethyl)-2-oxo-1,2-dihydropyridin-3-ylamino)-5-(1-methyl-1H-imidazole-5-carboxamido)-2,6-dioxohexanamido)acetat] stands 700 nM; under `CCC(CC)CNC(=O)Cn1cccc(NC(=O)[C@H](CCC(=O)C(N)=O)NS(=O)(=O)c2cccc3c(N(C)C)cccc23)c1=O` [Compound E15, (S)-2-(5-(dimethylamino)naphthalene-1-sulfonamido)-N1-(1-(2-(2-ethylbutylamino)-2-oxoethyl)-2-oxo-1,2-dihydropyridin-3-yl)-5-oxonexanediamide], 6000 nM; under `CNC(=O)C(=O)CC[C@H](NC(=O)Cc1cc(C)nn1C)C(=O)Nc1cccc(C(=O)N[C@@H](Cc2ccc(-c3ccccc3)cc2)C(=O)N2C[C@H](Oc3ccccc3)C[C@H]2C(N)=O)c1` [Compound E83, (S)—N1-(3-((S)-3-(biphenyl-4-yl)-1-((2S,4R)-2-carbamoyl-4-phenoxypyrrolidin-1-yl)-1-oxopropan-2-ylcarbamoyl)phenyl)-2-(2-(1,3-dimethyl-1H-pyrazol-5-yl)acetamido)-N6-methyl-5-oxohexanediamide], 2000 nM.
Take `CCC(CC)CNC(=O)Cn1cccc(NC(=O)[C@H](CCC(=O)C(=O)NC)NC(=O)c2cnco2)c1=O` [Compound E62, (S)—N1-(1-(2-(2-ethylbutylamino)-2-oxoethyl)-2-oxo-1,2-dihydropyridin-3-yl)-N6-methyl-2-(oxazole-5-carboxamido)-5-oxohexanediamide]: the IC50 amounted to 70 nM.
Under `CCN(CC)C(=O)Cn1cccc(NC(=O)[C@H](CCC(=O)C(=O)NC)NC(=O)c2cncn2C)c1=O` [Compound E50, (S)—N1-(1-(2-(diethylamino)-2-oxoethyl)-2-oxo-1,2-dihydropyridin-3-yl)-N6-methyl-2-(1-methyl-1H-imidazole-5-carboxamido)-5-oxohexanediamide] stands 300 nM.
